Measured values: ChEMBL document CHEMBL1125842, “Synthesis and anticonvulsant activity of 2-iminohydantoins” (J Med Chem, 1991)
The source made the active and inactive calls. The calls are words filed in the database; no cut-off is given here.

Legend:
Mus musculus [1] = test: ED50 was evaluated from MES test in mice by delivering intraperitoneally and the value was determined at peak time effect or peak neurologic effect.; format: functional; details: ip
Mus musculus [2] = test: ED50 was evaluated from scMET test in mice by delivering intraperitoneally and the value was determined at peak time effect or peak neurologic effect.; format: functional; details: ip
Mus musculus [3] = test: Anticonvulsant activity was measured from mES test by delivering the drug intraperitoneally after 0.5 hr; format: functional; details: ip
Mus musculus [4] = test: Anticonvulsant activity was measured from scMET test by delivering the drug intraperitoneally after 0.5 hr; format: functional; details: ip
[5] = Neurotoxicity was determined from the rotarod ataxia test for the compound by the intraperitoneal administration.; format: toxicity, organism-based; details: mouse, in vivo, ip
[6] = Protective index was determined as ratio of TD50 to ED50(MES method); format: functional
[7] = Protective index was determined as ratio of TD50 to ED50(scMET method); format: functional
Mus musculus [8] = organism: Mus musculus; test: animal or person; details: ip
Mus musculus [9] = organism: Mus musculus
Description: ED50 was evaluated from scMET test in mice by delivering intraperitoneally and the value was determined at peak time effect or peak neurologic effect; NA-Not active

Mus musculus [10] = organism: Mus musculus; remark: listed apart in the source
Mus musculus [11] = test: Anticonvulsant activity was measured from mES test by delivering the drug intraperitoneally after 0.5 hr; NA-Not active; format: functional, organism-based

SMILES | ED50 (Mus musculus [1]) | ED50 (Mus musculus [2]) | ED50 (Mus musculus [3]) | ED50 (Mus musculus [4]) | further results
CC(C)C[C@H]1C(=O)N=C(N)N1C(=O)OCc1ccccc1 | 98.6 mg/kg | 141 mg/kg | 44.5 mg/kg | 92.8 mg/kg | TD50 [5]: 350 mg/kg; PI [6]: 3.5; PI [7]: 2.5
CCC1(C)CC(=O)NC1=O (stereo not given) [ETHOSUXIMIDE] | > 1000 mg/kg | 130 mg/kg | – | – | TD50 (Mus musculus [8]): 441 mg/kg
NC1=NC(=O)CN1C(=O)OCc1ccccc1 | – | – | 459 mg/kg | – | –
CCC1(c2ccccc2)NC(=O)N(C)C1=O (stereo not given) [MEPHENYTOIN] | 61 mg/kg | 31 mg/kg | – | – | –
O=C1NC(=O)C(c2ccccc2)(c2ccccc2)N1 [PHENYTOIN] | – | – | 2.3 mg/kg | – | ED50 (Mus musculus [9]): inactive; ED50 (Mus musculus [10]): inactive
NC1=NC(=O)[C@H](Cc2ccccc2)N1 | – | – | 97.8 mg/kg | > 1000 mg/kg | –
NC(=O)NC(=O)Cc1ccccc1 [PHENACEMIDE] | 87 mg/kg | – | – | – | PI [6]: 4.8; PI [7]: 3.6
O=C1NC(=S)NC1(c1ccccc1)c1ccccc1 [THIOPHENYTOIN] | – | – | – | 1340 mg/kg | ED50 (Mus musculus [11]): inactive
CCC1(c2ccccc2)C(=O)NC(=O)NC1=O [PHENOBARBITAL] | 21.8 mg/kg | 13.2 mg/kg | – | – | TD50 (Mus musculus [8]): 69 mg/kg
CC(C)C[C@@H]1C(=O)N=C(N)N1C(=O)OCc1ccccc1 | – | – | – | 547 mg/kg | –
CC(C)C[C@@H]1N=C(N)NC1=O | – | – | – | > 300 mg/kg | –
NC1=NC(=O)[C@H](Cc2ccccc2)N1C(=O)OCc1ccccc1 | – | – | 213 mg/kg | > 1000 mg/kg | –
